Measurements as given in patent publication US6034136A, “Certain cyclic thio substituted acylaminoacid amide derivatives” (Novartis AG, priority 1998, dated 2000).

Assays:
Assay type in all cases: biochemical
[1] = target: T1, Human recombinant fibroblast collagenase (collagenase-1) (Homo sapiens, UniProt P03956); test: Collagenase-1 inhibitory activity (bovine type I collagen digestion, Coomasie blue); conditions: 2 hours at 35° C., read-out: IC50 for inhibition of collagenase-1 activity
T1 sequence (P03956 100-469): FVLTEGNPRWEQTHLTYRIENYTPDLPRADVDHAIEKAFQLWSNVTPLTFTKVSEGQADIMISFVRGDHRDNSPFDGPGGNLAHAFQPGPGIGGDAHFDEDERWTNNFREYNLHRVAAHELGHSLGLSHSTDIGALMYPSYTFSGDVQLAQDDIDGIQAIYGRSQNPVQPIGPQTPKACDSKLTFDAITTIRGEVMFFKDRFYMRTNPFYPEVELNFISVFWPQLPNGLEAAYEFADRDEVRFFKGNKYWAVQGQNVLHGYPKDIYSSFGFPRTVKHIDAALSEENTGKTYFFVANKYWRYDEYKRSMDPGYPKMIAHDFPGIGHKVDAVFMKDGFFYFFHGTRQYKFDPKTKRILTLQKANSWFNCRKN
Protocol: Collagenase -1 inhibitory activity is determined as follows: ninety six-well, flat-bottom microtiter plates are first coated with bovine type I collagen (35 ug/well) over a two-day period at 30° C. using a humidified and then dry atmosphere; plates are rinsed, air dried for 3-4 hours, sealed with Saran wrap and stored in a refrigerator. Human recombinant fibroblast collagenase and a test compound (or buffer) are added to wells (total volume=0.1 ml) and plates are incubated for 2 hours at 35° C. under humidified conditions; the amount of collagenase used per well is that causing approximately 80% of maximal digestion of collagen. The incubation media are removed from the wells, which are then rinsed with buffer, followed by water. […] Sodium dodecyl sulfate (20% in 50% dimethylformamide in water) is added to solubilize the remaining stained collagen and the optical density at 570 nm wave length is measured. The decrease in optical density due to collagenase (from that of collagen without enzyme) is compared to the decrease in optical density due to the enzyme in the presence of test compound, and percent inhibition of enzyme activity is calculated. IC50 's are determined from a range of concentrations of inhibitors (4-5 concentrations, each tested in triplicate), and KI values are calculated. […]

[2] = target: collagenase-3 (Homo sapiens, UniProt P45452); test: Collagenase-3 inhibitory activity (fluorescent substrate MCA-Pro-Leu-Gly-Dpa-Ala-Arg-NH2); conditions: room temperature, 10 minutes preincubation, fluorescence; read-out: IC50 for inhibition of collagenase-3 activity
Protocol: Collagenase-3 inhibitory activity is determined as follows:
[…] solutions of substrate (MCA-Pro-Leu-Gly-Dpa-Ala-Arg-NH2, J. Biol. Chem. 271, 1544-1550, 1996) and 10 nM stock solution of inhibitor are prepared in DMSO. They are diluted with assay buffer ([…] at pH 7.5 containing 10 mM CaCl2, 0.002% sodium azide) as needed. Recombinant pro-collagenase-3 is activated with 1 mM APMA, and stored in the assay buffer after extensive dialysis in the assay buffer. Recombinant enzyme solution (0.05 ml, 1.3 nM) is mixed with 0.05 mL of inhibitor solution at various concentrations for 10 minutes at room temperature. Then 0.025 mL of 8 μM substrate solution is added and fluorescence (λex=325; λem=405) is continuously measured at room temperature. The percent inhibition of collagenase-3 activity is determined from the effect of inhibitor at various concentrations on the change in fluorescence; the IC50 is determined graphically.
Compounds of formula I have an IC50 of about 5 nM to about 100 nM for inhibition of collagenase-3 activity.

[3] = target: recombinant human stromelysin (Homo sapiens, UniProt P08254); test: inhibition of stromelysin activity (hydrolysis of Substance P, HPLC); conditions: Substance P substrate, 30 minutes at 37° C.
Protocol: One test to determine the inhibition of stromelysin activity is based on its hydrolysis of Substance P using a modified procedure of Harrison et al (Harrison, R. A., Teahan J., and Stein R., A semicontinuous, high performance chromatography based assay for stromelysin, Anal. Biochem. 180, 110-113 (1989)). In this assay, Substance P is hydrolyzed by recombinant human stromelysin to generate a fragment, Substance P 7-11, which can be quantitated by HPLC. In a typical assay, a 10 mM stock solution of a compound to be tested is diluted in the assay buffer to 50 μM, mixed 1:1 with 8 μg recombinant human stromelysin (mol. wt. 45-47 kDa, 2 Units; where 1 Unit produces […] of Substance P 7-11 in 30 minutes) and incubated along with 0.5 mM Substance P in a final volume of 0.125 ml for 30 minutes at 37° C. The reaction is stopped by adding 10 mM EDTA and Substance P 7-11 is quantified on RP-8 HPLC. The IC50 for inhibition of stromelysin activity and Ki are calculated from control reaction without the inhibitor.
Compounds of formula I have an IC50 of about 10 nM to about 5 μM for inhibition of stromelysin activity.

Sequence of recombinant human stromelysin (P08254 100-477): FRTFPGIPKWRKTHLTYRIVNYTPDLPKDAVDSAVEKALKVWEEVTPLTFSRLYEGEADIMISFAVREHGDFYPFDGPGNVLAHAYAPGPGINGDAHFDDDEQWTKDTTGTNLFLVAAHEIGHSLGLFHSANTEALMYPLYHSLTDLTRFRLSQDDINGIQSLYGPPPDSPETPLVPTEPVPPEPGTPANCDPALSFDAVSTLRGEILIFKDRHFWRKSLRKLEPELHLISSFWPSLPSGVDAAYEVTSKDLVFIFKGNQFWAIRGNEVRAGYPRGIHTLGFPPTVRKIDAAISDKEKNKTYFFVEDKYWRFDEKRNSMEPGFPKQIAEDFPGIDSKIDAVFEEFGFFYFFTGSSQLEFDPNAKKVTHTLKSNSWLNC

## CNC(=O)[C@H](Cc1ccccc1)NC(=O)C1(C(S)CCc2ccccc2)CCCCC1 (stereo partly drawn) [2(d), (S)-2-[N-(1-(1-mercapto-3-phenylpropyl)-cyclohexanecarbonyl)amino]-3-phenylpropionic acid N-methylamide]
[1]
  IC50: ~200 nM
[2]
  IC50: ~20 nM

## CCO[C@H]1CC[C@@](CS)(C(=O)N[C@@H](Cc2ccccc2)C(=O)Nc2ccccc2)CC1 [2(e), (S)-2-[N-(1-mercaptomethyl-cis-4-ethoxycyclohexanecarbonyl)amino]-3-phenylpropionic acid N-phenylamide]
[3]
  IC50: ~70 nM
